Measurements: US20100061994A1, “MEDICAL USES OF 39-DESMETHOXYRAPAMYCIN AND ANALOGUES THEREOF” (priority 2005, published 2010)

Columns and labels:
Assay type in all cases: cell-based, human
OVCAR3 = test: Monolayer proliferation assay Protocol 1 (propidium iodide); details: 4 days, mean of duplicate experiments
Procedure: (§1) In vitro evaluation of compounds for anticancer activity in a panel of 12 human tumour cell lines in a monolayer proliferation assay were carried out at the Oncotest Testing Facility, Institute for Experimental Oncology, Oncotest GmbH, Freiburg.
(§2) A modified propidium iodide assay was used to assess the effects of the test compound(s) on the growth of twelve human tumor cell lines (Dengler et al, 1995).
(§3) Briefly, cells were harvested from exponential phase cultures by trypsinization, counted and plated in 96 well flat-bottomed microtitre plates at a cell density dependent on the cell line (5-10.000 viable cells/well). […] Each concentration was plated in triplicate. 39-Desmethoxyrapamycin was applied in two concentrations (0.001 mM and 0.01 mM).
(§4) Growth inhibition was expressed as treated/control×100 (% TIC). For active compounds, IC50 & IC70 values were estimated by plotting compound concentration versus cell viability.
(§5) In vitro evaluation of 39-desmethoxyrapamycin for anticancer activity in a panel of 12 human tumour cell lines in a monolayer proliferation assay was carried out as described as Protocol 1 in the general methods above using a modified propidium iodide assay.

LNCAP = test: as above; details: 4 days, mean of duplicate experiments
Procedure: as §1, §2, §3, §4, §5

394NL = test: as above; details: 4 days, mean of duplicate experiments
Procedure: as §1, §2, §3, §4, §5

A498 = test: as above; details: 4 days, mean of duplicate experiments
Procedure: as §1, §2, §3, §4, §5

251L = test: as above; details: 4 days, mean of duplicate experiments
Procedure: as §1, §2, §3, §4, §5

SF268 = test: as above; details: 4 days, mean of duplicate experiments
Procedure: as §1, §2, §3, §4, §5

DU145 = test: as above; details: 4 days, mean of duplicate experiments
Procedure: as §1, §2, §3, §4, §5

MCF7 = test: as above; details: 4 days, mean of duplicate experiments
Procedure: as §1, §2, §3, §4, §5

1138L = test: as above; details: 4 days, mean of duplicate experiments
Procedure: as §1, §2, §3, §4, §5

MDA231 = test: as above; details: 4 days, mean of duplicate experiments
Procedure: as §1, §2, §3, §4, §5

H460 = test: as above; details: 4 days, mean of duplicate experiments
Procedure: as §1, §2, §3, §4, §5

MDA468 = test: as above; details: 4 days, mean of duplicate experiments
Procedure: as §1, §2, §3, §4, §5

SF295 = test: Monolayer assay Protocol 2 (SRB), high MDR-expressing cell lines; details: CNS SF295, high MDR-expressing, 48 h
Procedure: The human tumor cell lines of the National Cancer Institute (NCI) cancer screening panel were grown in RPMI 1640 medium containing 5% fetal bovine serum and 2 mM L-glutamine (Boyd and Paull, 1995). Cells were inoculated into 96 well microtiter plates in 0.1 mL at plating densities ranging from 5,000 to 40,000 cells/well depending on the doubling time of individual cell lines. After cell inoculation, the microtiter plates were incubated at 37° C., 5% CO2, 95% air and 100% relative humidity for 24 h prior to addition of experimental drugs.
After 24 h, two plates of each cell line were fixed in situ with trichloroacetic acid (TCA), to represent a measurement of the cell population for each cell line at the time of drug addition (Tz). Experimental drugs were solubilized in dimethyl sulfoxide at 400-fold the desired final maximum test concentration and stored frozen prior to use. At the time of drug addition, an aliquot of frozen concentrate was thawed and diluted to twice the desired final maximum test concentration with complete medium containing 0.05 mg/mL gentamicin. Additional four, 10-fold or ½ log serial dilutions were made to provide a total of five drug concentrations plus control. Aliquots of 0.1 mL of these different drug dilutions were added to the appropriate microtiter wells already containing 0.1 mL of medium, resulting in the required final drug concentrations.
Following drug addition, the plates were incubated for an additional 48 h at 37° C., 5% CO2, 95% air, and 100% relative humidity. For adherent cells, the assay was terminated by the addition of cold TCA. Cells were fixed in situ by the gentle addition of 0.05 mL of cold 50% (w/v) TCA (final concentration, 10% TCA) and incubated for 60 minutes at 4° C. The supernatant was discarded, and the plates were washed five times with tap water and air dried. Sulforhodamine B (SRB) solution (0.1 mL) at 0.4% (w/v) in 1% acetic acid was added to each well, and plates were incubated for 10 minutes at room temperature. After staining, unbound dye was removed by washing five times with 1% acetic acid and the plates were air dried. Bound stain was subsequently solubilized with 10 mM trizma base, and the absorbance was read on an automated plate reader at a wavelength of 515 nm. […] Using the seven absorbance measurements [time zero, (Tz), control growth, (C), and test growth in the presence of drug at the five concentration levels (Ti)], the percentage growth was calculated at each of the drug concentrations levels. Percentage growth inhibition was calculated as:
Three dose response parameters were calculated for each experimental agent. […] The drug concentration resulting in total growth inhibition (TGI) was calculated from Ti=Tz. […]

Row | Compound | Test/Control (%) at drug concentration (OVCAR3; OVCAR3, 1 μM) [%] | Test/Control (%) at drug concentration (OVCAR3; OVCAR3, 10 μM) [%] | Test/Control (%) at drug concentration (LNCAP; 1 μM) [%] | Test/Control (%) at drug concentration (LNCAP; 10 μM) [%] | Test/Control (%) at drug concentration (394NL; 1 μM) [%] | Test/Control (%) at drug concentration (394NL; 10 μM) [%] | Test/Control (%) at drug concentration (A498; A498, 1 μM) [%] | Test/Control (%) at drug concentration (A498; A498, 10 μM) [%] | Test/Control (%) at drug concentration (251L; 1 μM) [%] | Test/Control (%) at drug concentration (251L; 10 μM) [%] | Test/Control (%) at drug concentration (SF268; SF268, 1 μM) [%] | Test/Control (%) at drug concentration (SF268; SF268, 10 μM) [%] | Test/Control (%) at drug concentration (DU145; DU145, 1 μM) [%] | Test/Control (%) at drug concentration (DU145; DU145, 10 μM) [%] | Test/Control (%) at drug concentration (MCF7; MCF7, 1 μM) [%] | Test/Control (%) at drug concentration (MCF7; MCF7, 10 μM) [%] | Test/Control (%) at drug concentration (1138L; 1 μM) [%] | Test/Control (%) at drug concentration (1138L; 10 μM) [%] | Test/Control (%) at drug concentration (MDA231; MDA231, 1 μM) [%] | Test/Control (%) at drug concentration (MDA231; MDA231, 10 μM) [%] | also measured
1 | COC1CC2CCC(C)C(O)(O2)C(=O)C(=O)N2CCCCC2C(=O)OC(C(C)CC2CCC(O)CC2)CC(=O)C(C)C=C(C)C(O)C(OC)C(=O)C(C)CC(C)C=CC=CC=C1C (stereo not shown) [39-desmethoxyrapamycin] | 77.5 | 62 | 74.5 | 28.5 | 48 | 40.5 | 62.5 | 43.5 | 86 | 32.5 | 57.5 | 23 | 65.5 | 44.5 | 92.5 | 18.5 | 52 | 9.5 | 68 | 37.5 | Test/Control (%) at drug concentration (H460; H460, 1 μM): 71%; Test/Control (%) at drug concentration (H460; H460, 10 μM): 55.5%; Test/Control (%) at drug concentration (MDA468; MDA468, 1 μM): 65%; Test/Control (%) at drug concentration (MDA468; MDA468, 10 μM): 13.5%; Log GI50 (SF295): −5.85
2 | CO[C@H]1C[C@@H]2CC[C@@H](C)[C@@](O)(O2)C(=O)C(=O)N2CCCC[C@H]2C(=O)O[C@H]([C@H](C)C[C@@H]2CC[C@@H](O)[C@H](OC)C2)CC(=O)[C@H](C)/C=C(\C)[C@@H](O)[C@@H](OC)C(=O)[C@H](C)C[C@H](C)/C=C/C=C/C=C/1C [Rapamycin] | 69 | 69.5 | 61 | 34 | 45 | 44 | 58.5 | 48.5 | 75.5 | 40 | 53.5 | 46 | 50.5 | 54 | 68.5 | 26.5 | 42 | 21.5 | 67 | 63.5 | Test/Control (%) at drug concentration (H460; H460, 1 μM): 67%; Test/Control (%) at drug concentration (MDA468; MDA468, 1 μM): 56.5%; Test/Control (%) at drug concentration (MDA468; MDA468, 10 μM): 32%; GI50 (SF295; Homo sapiens, SF-295): 100 nM
